Data as given in ChEMBL document CHEMBL1201862, “PubChem BioAssay data set” (2004).
Active and inactive are the calls of the source.

Columns and labels:
[1] = target: T1, Hexokinase-1 (Homo sapiens, UniProt P19367); assay: hexokinase 1 activity inhibitors, potency – biochemical, set 2, resazurin fluorescence coupled readout, selectivity assay for HKDC1 inhibitor project, SAR follow-up (AID 588356); type: functional
T1 sequence (P19367 whole entry): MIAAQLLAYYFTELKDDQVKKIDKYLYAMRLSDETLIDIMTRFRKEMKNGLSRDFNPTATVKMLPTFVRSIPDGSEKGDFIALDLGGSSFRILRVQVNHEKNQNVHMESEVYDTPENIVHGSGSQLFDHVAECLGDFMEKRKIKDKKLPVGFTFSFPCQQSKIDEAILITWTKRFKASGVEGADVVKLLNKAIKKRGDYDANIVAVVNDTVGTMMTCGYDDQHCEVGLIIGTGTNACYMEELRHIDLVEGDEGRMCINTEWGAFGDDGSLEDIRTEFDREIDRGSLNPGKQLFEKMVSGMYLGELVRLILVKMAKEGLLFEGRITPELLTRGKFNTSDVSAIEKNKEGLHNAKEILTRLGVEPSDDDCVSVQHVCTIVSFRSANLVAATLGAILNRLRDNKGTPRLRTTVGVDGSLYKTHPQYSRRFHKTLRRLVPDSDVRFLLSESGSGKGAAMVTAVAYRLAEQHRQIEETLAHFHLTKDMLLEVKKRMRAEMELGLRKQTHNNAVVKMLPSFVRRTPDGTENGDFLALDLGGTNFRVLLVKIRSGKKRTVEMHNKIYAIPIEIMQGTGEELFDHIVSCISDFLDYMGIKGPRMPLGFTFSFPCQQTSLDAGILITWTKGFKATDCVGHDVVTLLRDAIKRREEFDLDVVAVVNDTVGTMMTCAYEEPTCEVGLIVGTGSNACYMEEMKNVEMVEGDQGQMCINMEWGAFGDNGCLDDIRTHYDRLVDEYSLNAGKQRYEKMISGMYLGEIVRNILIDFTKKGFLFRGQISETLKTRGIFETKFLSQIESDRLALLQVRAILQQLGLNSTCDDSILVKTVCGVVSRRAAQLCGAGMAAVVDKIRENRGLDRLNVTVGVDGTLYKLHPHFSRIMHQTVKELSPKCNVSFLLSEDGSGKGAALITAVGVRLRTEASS

[2] = target: T2, Hexokinase HKDC1 (Homo sapiens, UniProt Q2TB90); assay: analog inhibition of human HKDC1 activity – biochemical, set 2, SAR follow-up (AID 588355); type: functional
T2 sequence (Q2TB90 whole entry): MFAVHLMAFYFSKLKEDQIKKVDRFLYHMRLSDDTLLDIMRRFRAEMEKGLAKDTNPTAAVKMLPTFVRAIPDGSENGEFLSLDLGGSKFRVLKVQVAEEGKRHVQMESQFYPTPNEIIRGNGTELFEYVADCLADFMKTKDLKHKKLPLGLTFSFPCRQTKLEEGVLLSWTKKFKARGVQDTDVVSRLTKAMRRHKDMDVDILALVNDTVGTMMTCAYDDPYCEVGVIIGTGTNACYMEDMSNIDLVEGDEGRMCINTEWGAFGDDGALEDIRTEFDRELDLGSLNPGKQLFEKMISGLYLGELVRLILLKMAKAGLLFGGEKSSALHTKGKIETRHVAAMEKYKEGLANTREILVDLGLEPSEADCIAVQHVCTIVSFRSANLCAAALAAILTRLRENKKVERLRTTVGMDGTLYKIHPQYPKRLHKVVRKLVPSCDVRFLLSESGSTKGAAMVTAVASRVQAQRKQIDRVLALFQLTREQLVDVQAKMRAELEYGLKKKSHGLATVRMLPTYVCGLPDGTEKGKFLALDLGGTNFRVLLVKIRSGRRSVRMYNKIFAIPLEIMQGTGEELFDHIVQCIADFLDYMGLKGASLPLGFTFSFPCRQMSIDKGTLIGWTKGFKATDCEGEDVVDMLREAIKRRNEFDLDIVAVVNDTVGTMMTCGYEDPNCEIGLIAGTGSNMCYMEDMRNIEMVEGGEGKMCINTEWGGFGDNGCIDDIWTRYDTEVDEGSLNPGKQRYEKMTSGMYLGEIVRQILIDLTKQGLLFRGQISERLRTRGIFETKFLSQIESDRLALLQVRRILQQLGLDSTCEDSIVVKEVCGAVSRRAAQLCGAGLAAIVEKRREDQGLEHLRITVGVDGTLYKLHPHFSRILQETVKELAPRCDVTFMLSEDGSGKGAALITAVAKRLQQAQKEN

[3] = target: Trypsin (Sus scrofa, UniProt P00761); assay: trypsin protease activity blockade – biochemical, quenched peptide fluorescence, cherry-pick, selectivity assay for Rce1 protease inhibitor project, dose response (AID 488789)
[4] = target: T3, Runt-related transcription factor 1/Core-binding factor subunit beta (Homo sapiens, UniProt Q01196+Q13951); assay: Runt domain/CBFb-SMMHC interaction disruptors – biochemical, TR-FRET (AID 1438); type: protein assay
[5] = target: T3, Runt-related transcription factor 1/Core-binding factor subunit beta; assay: disruptors of Runt domain/CBFb-SMMHC interaction – biochemical, FRET, Cerulean-Runt, Venus-CBFb-SMMHC, uHTS, […] (AID 1434); type: protein assay
[6] = target: CAAX prenyl protease 2 (Homo sapiens, UniProt Q9Y256); assay: inhibition of Ras-converting CAAX protease Rce1 – biochemical, yeast membranes, quenched-peptide fluorescence, cherry-pick, dose response (AID 588849)
[7] = target: Cytochrome P450 2C19 (Homo sapiens, UniProt P33261); assay: Cytochrome panel assay with activity outcomes. Panel member name: p450-cyp2c19 Compounds with AC50 equal or less than 10 uM are considered active; type: functional; conditions: read-out: AC50
[8] = target: Dual specificity protein kinase CLK1 (Homo sapiens, UniProt P49759); assay: inhibition of human CLK1 activity – biochemical, cherry-picked samples, selectivity assay for Dyrk1A inhibitor project, dose response (AID 588811)
[9] = target: Cytochrome P450 2C9 (Homo sapiens, UniProt P11712)
[10] = test system: NIH3T3; assay: mammalian cell viability counter-check – Alamar Blue, fluconazole, dry powder, cytotoxicity control for antifungal drug resistance project, dose response (AID 488809); type: functional, cell-based; conditions: Mus musculus
[11] = target: Voltage-gated inwardly rectifying potassium channel KCNH2 (Homo sapiens, UniProt Q12809); conditions: Potency;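 note: confirmatory quantitative high-throughput screen measuring inhibition of hERG channel activity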
[12] = target: Cytochrome P450 3A4 (Homo sapiens, UniProt P08684);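 note: CYP3A4 tested as one member of a cytochrome P450 panel screen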
[13] = target: Dual specificity tyrosine-phosphorylation-regulated kinase 1A (Rattus norvegicus, UniProt Q63470); type: biochemical, Homo sapiens

T3 sequence (Q01196 whole entry, the tested form may be a part): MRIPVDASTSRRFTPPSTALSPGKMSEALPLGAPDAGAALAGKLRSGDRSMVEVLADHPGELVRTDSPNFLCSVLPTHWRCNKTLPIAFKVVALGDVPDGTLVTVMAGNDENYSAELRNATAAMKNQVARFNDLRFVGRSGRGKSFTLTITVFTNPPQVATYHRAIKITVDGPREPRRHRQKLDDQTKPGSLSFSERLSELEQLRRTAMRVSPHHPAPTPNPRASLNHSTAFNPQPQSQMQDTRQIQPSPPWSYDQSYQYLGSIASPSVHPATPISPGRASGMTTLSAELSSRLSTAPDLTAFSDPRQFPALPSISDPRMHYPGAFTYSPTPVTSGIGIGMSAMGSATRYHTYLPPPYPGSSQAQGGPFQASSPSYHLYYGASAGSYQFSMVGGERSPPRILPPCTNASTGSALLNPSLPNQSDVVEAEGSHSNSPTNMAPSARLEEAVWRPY
T3 sequence (Q13951 whole entry, the tested form may be a part): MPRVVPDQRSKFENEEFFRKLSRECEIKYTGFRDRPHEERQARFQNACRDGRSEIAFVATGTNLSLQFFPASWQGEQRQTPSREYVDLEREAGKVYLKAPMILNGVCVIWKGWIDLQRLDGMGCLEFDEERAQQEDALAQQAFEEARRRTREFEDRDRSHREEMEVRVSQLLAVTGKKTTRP
Sequence of CAAX prenyl protease 2 (Q9Y256 whole entry): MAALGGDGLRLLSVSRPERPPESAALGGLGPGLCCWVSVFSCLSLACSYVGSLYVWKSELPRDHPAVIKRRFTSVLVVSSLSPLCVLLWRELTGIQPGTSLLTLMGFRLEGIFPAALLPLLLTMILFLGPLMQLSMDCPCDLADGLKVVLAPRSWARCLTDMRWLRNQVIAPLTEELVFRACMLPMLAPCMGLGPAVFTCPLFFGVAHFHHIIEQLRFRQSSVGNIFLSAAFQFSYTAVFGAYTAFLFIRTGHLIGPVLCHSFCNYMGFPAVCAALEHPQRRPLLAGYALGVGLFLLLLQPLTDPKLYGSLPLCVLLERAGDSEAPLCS
Sequence of Cytochrome P450 3A4 (P08684 whole entry): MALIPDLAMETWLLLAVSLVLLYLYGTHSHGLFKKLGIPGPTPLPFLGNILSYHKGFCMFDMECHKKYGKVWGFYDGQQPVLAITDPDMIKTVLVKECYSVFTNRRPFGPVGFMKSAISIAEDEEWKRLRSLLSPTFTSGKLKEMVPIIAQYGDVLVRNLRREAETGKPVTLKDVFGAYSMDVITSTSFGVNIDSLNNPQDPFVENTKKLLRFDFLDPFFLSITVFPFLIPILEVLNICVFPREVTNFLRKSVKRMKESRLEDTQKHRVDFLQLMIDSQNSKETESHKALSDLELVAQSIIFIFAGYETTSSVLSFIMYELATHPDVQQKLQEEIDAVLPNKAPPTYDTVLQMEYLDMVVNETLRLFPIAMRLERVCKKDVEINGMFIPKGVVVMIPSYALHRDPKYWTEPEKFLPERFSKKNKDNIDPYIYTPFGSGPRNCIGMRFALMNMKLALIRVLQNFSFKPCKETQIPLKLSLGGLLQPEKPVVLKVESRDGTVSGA
Sequence of Voltage-gated inwardly rectifying potassium channel KCNH2 (Q12809 whole entry): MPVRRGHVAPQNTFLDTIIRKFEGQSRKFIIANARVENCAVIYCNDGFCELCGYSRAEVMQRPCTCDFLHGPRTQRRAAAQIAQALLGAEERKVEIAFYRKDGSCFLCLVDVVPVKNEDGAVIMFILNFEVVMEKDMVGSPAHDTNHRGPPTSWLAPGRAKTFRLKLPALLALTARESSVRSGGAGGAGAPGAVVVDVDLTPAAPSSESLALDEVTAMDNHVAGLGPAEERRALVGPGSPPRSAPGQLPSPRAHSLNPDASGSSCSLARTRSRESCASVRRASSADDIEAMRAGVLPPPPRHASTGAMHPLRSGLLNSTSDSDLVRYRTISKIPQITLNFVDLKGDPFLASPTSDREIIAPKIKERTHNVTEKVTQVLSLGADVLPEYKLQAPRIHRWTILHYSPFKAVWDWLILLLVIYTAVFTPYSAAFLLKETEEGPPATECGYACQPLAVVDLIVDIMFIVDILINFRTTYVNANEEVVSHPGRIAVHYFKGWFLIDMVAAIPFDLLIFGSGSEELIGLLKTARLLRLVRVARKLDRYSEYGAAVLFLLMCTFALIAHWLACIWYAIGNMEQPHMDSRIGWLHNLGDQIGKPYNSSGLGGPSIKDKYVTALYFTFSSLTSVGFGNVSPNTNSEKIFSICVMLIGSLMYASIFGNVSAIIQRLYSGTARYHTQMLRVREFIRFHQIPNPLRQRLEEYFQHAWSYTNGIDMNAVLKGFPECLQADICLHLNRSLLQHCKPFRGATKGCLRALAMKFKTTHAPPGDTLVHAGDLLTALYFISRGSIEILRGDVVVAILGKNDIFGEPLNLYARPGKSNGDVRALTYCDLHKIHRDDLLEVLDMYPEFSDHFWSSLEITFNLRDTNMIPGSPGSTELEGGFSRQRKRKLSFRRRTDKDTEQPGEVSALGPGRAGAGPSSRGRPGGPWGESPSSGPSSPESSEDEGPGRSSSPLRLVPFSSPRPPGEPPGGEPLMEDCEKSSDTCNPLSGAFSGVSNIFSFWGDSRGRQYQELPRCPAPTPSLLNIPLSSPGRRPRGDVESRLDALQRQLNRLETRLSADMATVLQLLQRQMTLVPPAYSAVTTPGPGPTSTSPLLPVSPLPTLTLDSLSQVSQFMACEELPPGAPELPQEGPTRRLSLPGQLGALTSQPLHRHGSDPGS
Sequence of Cytochrome P450 2C9 (P11712 whole entry): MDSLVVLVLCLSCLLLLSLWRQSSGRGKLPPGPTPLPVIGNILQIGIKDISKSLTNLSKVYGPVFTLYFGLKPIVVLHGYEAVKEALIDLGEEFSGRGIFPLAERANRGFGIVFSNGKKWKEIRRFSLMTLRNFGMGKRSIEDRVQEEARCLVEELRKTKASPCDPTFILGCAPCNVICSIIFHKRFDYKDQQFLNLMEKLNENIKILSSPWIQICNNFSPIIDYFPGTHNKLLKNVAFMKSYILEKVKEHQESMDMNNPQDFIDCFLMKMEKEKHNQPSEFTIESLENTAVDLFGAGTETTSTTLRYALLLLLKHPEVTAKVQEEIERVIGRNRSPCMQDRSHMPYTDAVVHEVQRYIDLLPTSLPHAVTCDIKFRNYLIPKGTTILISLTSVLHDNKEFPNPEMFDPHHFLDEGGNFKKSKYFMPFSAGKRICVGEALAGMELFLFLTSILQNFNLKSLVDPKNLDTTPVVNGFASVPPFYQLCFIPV
Sequence of Trypsin (P00761 whole entry, the tested form may be a part): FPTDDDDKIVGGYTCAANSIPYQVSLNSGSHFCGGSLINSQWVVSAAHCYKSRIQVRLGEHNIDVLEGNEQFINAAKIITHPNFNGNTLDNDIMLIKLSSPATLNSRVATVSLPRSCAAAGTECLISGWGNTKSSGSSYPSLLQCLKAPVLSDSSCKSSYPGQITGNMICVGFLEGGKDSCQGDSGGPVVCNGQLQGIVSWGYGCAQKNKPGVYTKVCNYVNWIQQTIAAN
Sequence of Cytochrome P450 2C19 (P33261 whole entry): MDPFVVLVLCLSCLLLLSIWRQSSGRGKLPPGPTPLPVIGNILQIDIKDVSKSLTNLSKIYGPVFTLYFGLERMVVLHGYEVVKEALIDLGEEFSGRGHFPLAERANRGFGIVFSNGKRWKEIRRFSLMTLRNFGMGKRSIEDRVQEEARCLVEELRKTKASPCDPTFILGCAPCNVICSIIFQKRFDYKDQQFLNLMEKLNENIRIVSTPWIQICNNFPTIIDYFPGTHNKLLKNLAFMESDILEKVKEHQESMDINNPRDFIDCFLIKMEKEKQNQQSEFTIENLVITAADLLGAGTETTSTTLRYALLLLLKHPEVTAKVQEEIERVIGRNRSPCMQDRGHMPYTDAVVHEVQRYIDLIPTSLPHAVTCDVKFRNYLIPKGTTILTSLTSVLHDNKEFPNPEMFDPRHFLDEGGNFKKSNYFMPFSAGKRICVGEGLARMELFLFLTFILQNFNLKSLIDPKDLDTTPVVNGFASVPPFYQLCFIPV
Sequence of Dual specificity protein kinase CLK1 (P49759 whole entry): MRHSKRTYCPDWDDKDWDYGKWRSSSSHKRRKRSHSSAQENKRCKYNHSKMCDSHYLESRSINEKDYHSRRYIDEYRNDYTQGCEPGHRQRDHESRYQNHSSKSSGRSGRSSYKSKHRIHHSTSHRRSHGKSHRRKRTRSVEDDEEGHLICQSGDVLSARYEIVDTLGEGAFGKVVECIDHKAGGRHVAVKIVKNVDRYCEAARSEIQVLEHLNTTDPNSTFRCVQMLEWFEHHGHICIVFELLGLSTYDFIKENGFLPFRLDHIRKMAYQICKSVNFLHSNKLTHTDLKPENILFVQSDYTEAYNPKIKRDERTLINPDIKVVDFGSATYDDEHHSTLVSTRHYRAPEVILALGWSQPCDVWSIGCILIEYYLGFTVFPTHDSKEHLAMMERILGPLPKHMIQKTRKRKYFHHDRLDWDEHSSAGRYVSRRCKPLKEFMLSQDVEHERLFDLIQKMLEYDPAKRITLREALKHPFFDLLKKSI

Cc1ccc(N2C(=O)c3cccnc3C2Nc2ccc(C)c(C)c2)cc1 (stereo not drawn)
IC50 [1]: > 80 µM (inactive) | IC50 [2]: > 80 µM (inactive)

Cc1ccc(S(=O)(=O)Oc2ccc(C3C4=C(CCCC4=O)N(CCC(=O)O)C4=C3C(=O)CCC4)cc2Cl)cc1
AC50 [3]: 6.27 µM (active) | IC50 [4]: 14.6 µM (active) | IC50 [5]: 0.393 µM (active) | AC50 [6]: 11.4 µM (active)

c1cncc(CNc2cc(-c3ccc4c(c3)OCO4)ncn2)c1
AC50 [7]: 25.1 µM (inconclusive) | AC50 [8]: 5.2 µM (active) | AC50 [9]: 0.316 µM (inconclusive)

O=C(c1ccc(Cl)cc1)N1CCN(c2cc(C(F)(F)F)nc3ccccc23)CC1
AC50 [10]: 23.2 µM (active)

O=S(=O)(O)C1CCNCC1
AC50 [11]: 22.4 µM (inconclusive) | AC50 [12]: inconclusive

COc1ccc2c(c1)CCc1sc(NC(=O)c3ccco3)nc1-2
AC50 [13]: 2.01 µM (active)
